≈ marks a conversion by molar mass, not a printed value. Where two headings read alike, the source gives them in different places.
Tests used:
Format in all cases: cell-based
[1] = tested on: CETresistant E. coli (3) and K. pneumoniae (2); assay: MIC by two-fold serial agar dilution in Mueller-Hinton agar, Gn-Ib; conditions: for MIC: Escherichia coli, read-out: Geometric Mean of MIC
Experimental: (§1) In the primary evaluation of the compounds of this invention, the Minimum Inhibitory Concentrations (MIC's) of the compounds were determined by the two-fold serial agar dilution method in Mueller-Hinton agar against 32 strains of test organisms in six groups.
GnIb: CETresistant E. coli (3) and K. pneumoniae (2)

[2] = tested on: PCresistant S. aureus; assay: MIC by two-fold serial agar dilution in Mueller-Hinton agar, Gp-Ib; conditions: for MIC: Staphylococcus aureus, read-out: Geometric Mean of MIC
Experimental: as §1
GpIb: PCresistant S. aureus

[3] = tested on: Cephalothin(CET)sensitive E. coli (2 strains), K. pneumoniae (1) and P. mirabilis (2); assay: MIC by two-fold serial agar dilution in Mueller-Hinton agar, Gn-Ia; conditions: for MIC: read-out: Geometric Mean of MIC
Experimental: as §1
GnIa: Cephalothin(CET)sensitive E. coli (2 strains), K. pneumoniae (1) an […]

[4] = tested on: P. aeruginosa; assay: MIC by two-fold serial agar dilution in Mueller-Hinton agar, Gn-III; conditions: for MIC: Pseudomonas aeruginosa, read-out: Geometric Mean of MIC
Experimental: as §1

[5] = tested on: M. morganii (1), E. cloacae (2) and S. marcescens (2); assay: MIC by two-fold serial agar dilution in Mueller-Hinton agar, Gn-II; conditions: for MIC: read-out: Geometric Mean of MIC
Experimental: as §1
GnII: M. morganii (1), E. cloacae (2) and S. marcescens (2)

[6] = tested on: Penicillin(PC)sensitive S. aureus; assay: MIC by two-fold serial agar dilution in Mueller-Hinton agar, Gp-Ia; conditions: for MIC: Staphylococcus aureus
Experimental: as §1
Gp-Ia: Penicillin(PC)sensitive S. aureus

[7] = Gn-Ib, 5 strains, CET-resistant
[8] = Gp-Ib, 5 strains, PC-resistant S. aureus
[9] = Gn-Ia, 5 strains, CET-sensitive
[10] = Gn-III, 7 strains, P. aeruginosa
[11] = Gp-Ia, 5 strains, PC-sensitive S. aureus, read-out: Geometric Mean of MIC
[12] = Gp-Ia, 5 strains, PC-sensitive S. aureus
[13] = read-out: Geometric Mean of MIC, Gp-Ia, 5 strains, PC-sensitive S. aureus

SMILES | MIC [1, 7] [µg/mL] | MIC [2, 8] [µg/mL] | MIC [3, 9] [µg/mL] | MIC [4, 10] [µg/mL] | MIC ([5]; Gn-II, 5 strains) [µg/mL] | MIC [6, 11] [µg/mL] | MIC [1] [µg/mL] | other results
CO/N=C(\C(=O)NC1C(=O)N2C(C(=O)[O-])=C(C[N+]3(C)Cc4ccccc4C3)CS[C@H]12)c1csc(N)n1 (stereo partly drawn) [Example 14, 7-[(Z)-2-(2-Aminothiazol-4-yl)-2-methoxyiminoacetamido]-3-[(2-methyl-2-benzo[c]pyrrolinio)methyl]-3-cephem-4-carboxylate] | 0.13 (≈ 0.246 µM) | 1.7 (≈ 3.22 µM) | 0.042 (≈ 0.0795 µM) | 7.7 (≈ 14.6 µM) | 0.13 (≈ 0.246 µM) | 0.51 (≈ 0.965 µM) |  | 
CO/N=C(\C(=O)NC1C(=O)N2C(C(=O)[O-])=C(C[N+]34CCN(CC3)CC4)CS[C@H]12)c1csc(N)n1 (stereo partly drawn) [Example 4, 7-[(Z)-2-(2-Aminothiazol-4-yl)-2-methoxyiminoacetamido]-3-(1,4-diazabicyclo[2,2,2]octan-1-io)methyl-3-cephem-4-carboxylate] |  | 5.8 (≈ 11.4 µM) | 0.07 (≈ 0.138 µM) |  |  | 2.9 (≈ 5.71 µM) | 0.16 (≈ 0.315 µM) | MIC [4]: 3.6 µg/mL (≈ 7.09 µM); MIC [5]: 0.8 µg/mL (≈ 1.58 µM)
CO/N=C(\C(=O)NC1C(=O)N2C(C(=O)[O-])=C(C[N+]34CCC(CC3)CC4)CS[C@H]12)c1csc(N)n1 (stereo partly drawn) [Example 3, 7-[(Z)-2-(2-Aminothiazol-4-yl)-2-methoxyiminoacetamido]-3-(1-quinuclidinio)methyl-3-cephem-4-carboxylate] | 0.14 (≈ 0.276 µM) |  |  | 2.8 (≈ 5.53 µM) | 0.84 (≈ 1.66 µM) | 0.77 (≈ 1.52 µM) |  | MIC [2]: 2.5 µg/mL (≈ 4.93 µM); MIC [3]: 0.04 µg/mL (≈ 0.079 µM)
CO/N=C(\C(=O)NC1C(=O)N2C(C(=O)[O-])=C(C[N+]3(C)CCC[C@H]3C(N)=O)CSC12)c1csc(N)n1 (single isomer, unassigned) [8 Isomer B] |  |  |  |  |  |  | 0.2 (≈ 0.382 µM) | Geometric Mean of MIC [2, 8]: 4.1 µg/mL; Geometric Mean of MIC [3, 9]: 0.057 µg/mL; Geometric Mean of MIC [4, 10]: 7.2 µg/mL; MIC [5]: 0.23 µg/mL (≈ 0.439 µM); Geometric Mean of MIC [6, 12]: 1.6 µg/mL
CO/N=C(\C(=O)NC1C(=O)N2C(C(=O)[O-])=C(C[N+]3(CCO)CCCC3)CSC12)c1csc(N)n1 (stereo not drawn) [Example 17] |  | 4.1 (≈ 8.03 µM) | 0.057 (≈ 0.112 µM) | 4.1 (≈ 8.03 µM) |  | 1.6 (≈ 3.13 µM) | 0.15 (≈ 0.294 µM) | MIC [5]: 0.2 µg/mL (≈ 0.392 µM)
CO/N=C(\C(=O)NC1C(=O)N2C(C(=O)[O-])=C(C[N+]3(C)CCCCCC3)CS[C@H]12)c1csc(N)n1 (stereo partly drawn) [Example 7, 7-[(Z)-2-(2-Aminothiazol-4-yl)-2-methoxyiminoacetamido]-3-(1-methylhexahydroazepinio)methyl-3-cephem-4-carboxylate] | 0.13 (≈ 0.256 µM) | 3.2 (≈ 6.29 µM) | 0.05 (≈ 0.0983 µM) | 4.2 (≈ 8.26 µM) | 0.15 (≈ 0.295 µM) | 0.9 (≈ 1.77 µM) |  | 
CO/N=C(\C(=O)NC1C(=O)N2C(C(=O)[O-])=C(C[N+]3(C)CCCC3C)CS[C@H]12)c1csc(N)n1 (stereo partly drawn) [Example 19, 7-[(Z)-2-(2-Aminothiazol-4-yl)-2-methoxyiminoacetamido]-3-(1,2-dimethylpyrrolidinio)methyl-3-cephem-4-carboxylate] | 0.27 (≈ 0.546 µM) | 3.8 (≈ 7.68 µM) | 0.078 (≈ 0.158 µM) | 6 (≈ 12.1 µM) | 0.27 (≈ 0.546 µM) | 1.4 (≈ 2.83 µM) |  | 
CO/N=C(\C(=O)NC1C(=O)N2C(C(=O)[O-])=C(C[N+]3(C)CCOC3)CSC12)c1csc(N)n1 (single isomer, unassigned) [12 Isomer A] | 0.25 (≈ 0.518 µM) | 4.4 (≈ 9.12 µM) | 0.046 (≈ 0.0953 µM) | 5.4 (≈ 11.2 µM) | 0.21 (≈ 0.435 µM) |  |  | MIC [6, 13]: 1.1 µg/mL (≈ 2.28 µM)
CO/N=C(\C(=O)NC1C(=O)N2C(C(=O)[O-])=C(C[N+]3(C)CCOC3)CSC12)c1csc(N)n1 (single isomer, unassigned) [12 Isomer B] |  |  |  |  |  |  |  | Geometric Mean of MIC [1, 7]: 0.21 µg/mL; Geometric Mean of MIC [2, 8]: 4.4 µg/mL; MIC [3]: 0.04 µg/mL (≈ 0.0829 µM); Geometric Mean of MIC [4, 10]: 4.0 µg/mL; Geometric Mean of MIC ([5]; Gn-II, 5 strains): 0.18 µg/mL; Geometric Mean of MIC [6, 12]: 1.3 µg/mL
CO/N=C(\C(=O)NC1C(=O)N2C(C(=O)[O-])=C(C[N+]3(C)CCC(O)C3)CS[C@H]12)c1csc(N)n1 (stereo partly drawn) [Example 9, 7-[(Z)-2-(2-Aminothiazol-4-yl)-2-methoxyiminoacetamido]-3-(3-hydroxy-1-methylpyrrolidinio)methyl-3-cephem-4-carboxylate] |  | 3.3 (≈ 6.65 µM) | 0.27 (≈ 0.544 µM) | 2.9 (≈ 5.84 µM) |  |  | 0.14 (≈ 0.282 µM) | MIC [5]: 0.14 µg/mL (≈ 0.282 µM); MIC [6, 13]: 1.3 µg/mL (≈ 2.62 µM)
CO/N=C(\C(=O)NC1C(=O)N2C(C(=O)[O-])=C(C[N+]3(C)CCOCC3)CS[C@H]12)c1csc(N)n1 (stereo partly drawn) [Example 2, 7-[(Z)-2-(2-Aminothiazol-4-yl)-2-methoxyiminoacetamido]-3-(4-methyl-4-morpholinio)methyl-3-cephem-4-carboxylate] |  | 5 (≈ 10.1 µM) | 0.061 (≈ 0.123 µM) | 4 (≈ 8.06 µM) | 0.96 (≈ 1.93 µM) | 1.7 (≈ 3.42 µM) | 0.22 (≈ 0.443 µM) | 
C#CCO/N=C(\C(=O)NC1C(=O)N2C(C(=O)[O-])=C(C[N+]3(C)CCCC3)CSC12)c1csc(N)n1 (stereo not drawn) [Example 18, 7-[(Z)-2-(2-Aminothiazol-4-yl)-2-propargyloxyiminoacetamido]-3-(1-methyl-1-pyrrolidiniomethyl)-3-cephem-4-carboxylate] |  | 2.2 (≈ 4.36 µM) | 0.061 (≈ 0.121 µM) | 4 (≈ 7.93 µM) | 0.36 (≈ 0.713 µM) | 0.77 (≈ 1.53 µM) | 0.32 (≈ 0.634 µM) | 
CO/N=C(\C(=O)NC1C(=O)N2C(C(=O)[O-])=C(C[N+]3(C)CCN(C)CC3)CS[C@H]12)c1csc(N)n1 (stereo partly drawn) [Example 5, 7-[(Z)-2-(2-Aminothiazol-4-yl)-2-methoxyiminoacetamido]-3-(1,4-dimethyl-1-piperazinio)methyl-3-cephem-4-carboxylate] | 0.12 (≈ 0.235 µM) | 4.7 (≈ 9.22 µM) | 0.057 (≈ 0.112 µM) |  | 0.78 (≈ 1.53 µM) | 2.3 (≈ 4.51 µM) |  | MIC [4]: 3.6 µg/mL (≈ 7.06 µM)
CO/N=C(\C(=O)NC1C(=O)N2C(C(=O)[O-])=C(C[N+]3(C)CCC[C@H]3C(N)=O)CSC12)c1csc(N)n1 (single isomer, unassigned) [8 Isomer A] | 0.39 (≈ 0.745 µM) | 4.7 (≈ 8.98 µM) | 0.098 (≈ 0.187 µM) | 11 (≈ 21 µM) | 0.35 (≈ 0.668 µM) | 2.1 (≈ 4.01 µM) |  | 
CO/N=C(\C(=O)NC1C(=O)N2C(C(=O)[O-])=C(C[N+]3(C)CCSCC3)CS[C@H]12)c1csc(N)n1 (stereo partly drawn) [Example 20, 7-[(Z)-2-(2-Aminothiazol-4-yl)-2-methoxyiminoacetamido]-3-(4-methylthiomorpholinio)methyl-3-cephem-4-carboxylate] | 0.25 (≈ 0.488 µM) | 4.1 (≈ 8 µM) | 0.064 (≈ 0.125 µM) | 3.7 (≈ 7.22 µM) | 0.25 (≈ 0.488 µM) | 1.2 (≈ 2.34 µM) |  | 
CO/N=C(\C(=O)NC1C(=O)N2C(C(=O)[O-])=C(C[N+]3(C)CCc4scnc4C3)CS[C@H]12)c1csc(N)n1 (stereo partly drawn) [Example 6, 7-[(Z)-2-(2-Aminothiazol-4-yl)-2-methoxyiminoacetamido]-3-(5-methyl-4,5,6,7-tetrahydro-5-thiazolo[4,5-c]pyridinio)methyl-3-cephem-4-carboxylate] |  | 3.2 (≈ 5.82 µM) |  | 4.2 (≈ 7.64 µM) |  | 0.9 (≈ 1.64 µM) | 0.15 (≈ 0.273 µM) | MIC [3]: 0.025 µg/mL (≈ 0.0455 µM); MIC [5]: 0.4 µg/mL (≈ 0.728 µM)
CC[N+]1(CC2=C(C(=O)[O-])N3C(=O)C(NC(=O)/C(=N\OC)c4csc(N)n4)[C@H]3SC2)CCCC1 (stereo partly drawn) [Example 10, 7-[(Z)-2-(2-Aminothiazol-4-yl)-2-methoxyiminoacetamido]-3-(1-ethylpyrrolidinio)methyl-3-cephem-4-carboxylate] | 0.13 (≈ 0.263 µM) |  |  | 3.1 (≈ 6.27 µM) | 0.13 (≈ 0.263 µM) |  |  | MIC [2]: 2 µg/mL (≈ 4.04 µM); MIC [3]: 0.037 µg/mL (≈ 0.0748 µM); MIC [6, 13]: 1 µg/mL (≈ 2.02 µM)
CO/N=C(\C(=O)NC1C(=O)N2C(C(=O)[O-])=C(C[N+]3(C)CCSC3)CSC12)c1csc(N)n1 (single isomer, unassigned) [13 Isomer A] |  | 3.1 (≈ 6.22 µM) | 0.046 (≈ 0.0923 µM) | 5.9 (≈ 11.8 µM) |  | 0.84 (≈ 1.68 µM) |  | Geometric Mean of MIC [1, 7]: 0.28 µg/mL; Geometric Mean of MIC ([5]; Gn-II, 5 strains): 0.28 µg/mL
CO/N=C(\C(=O)NC1C(=O)N2C(C(=O)[O-])=C(C[N+]3(C)CCCCC3)CS[C@H]12)c1csc(N)n1 (stereo partly drawn) [Example 1, 7-[(Z)-2-(2-Aminothiazol-4-yl)-2-methoxyiminoacetamido]-3-(1-methyl-1-piperidinio)methyl-3-cephem-4-carboxylate] |  | 2.9 (≈ 5.86 µM) | 0.03 (≈ 0.0607 µM) | 3.2 (≈ 6.47 µM) | 0.55 (≈ 1.11 µM) |  | 0.14 (≈ 0.283 µM) | MIC [6, 13]: 1.3 µg/mL (≈ 2.63 µM)
CO/N=C(\C(=O)NC1C(=O)N2C(C(=O)[O-])=C(C[N+]3(C)CCc4nc(N)sc4C3)CSC12)c1csc(N)n1 (stereo not drawn) [Example 15, 7-[(Z)-2-(2-Aminothiazol-4-yl)-2-methoxyiminoacetamido]-3-[(2-amino-4,5,7-tetrahydro-6-methyl-6-thiazolo[5,4-c]pyridinio)methyl]-3-cephem-4-carboxylate] |  | 2.8 (≈ 4.96 µM) | 0.034 (≈ 0.0602 µM) | 4.6 (≈ 8.15 µM) | 0.18 (≈ 0.319 µM) |  | 0.16 (≈ 0.283 µM) | MIC [6, 13]: 1.1 µg/mL (≈ 1.95 µM)
